How the values were obtained:
[1] = target: partially purified TDTM-003 dehalogenase (Rhodococcus sp. TDTM0003, UniProt P59336); assay: Substrate profile of partially purified TDTM-003 dehalogenase; format: biochemical, Rhodococcus species TDTM-003; details: corrected for non-enzymatic hydrolysis
Description: (§1) Hydrolytic dehalogenase enzyme activity was evaluated by adding an appropriate amount of cell free extract or enzyme preparation to 5.0 mL of 100 mM glycine buffer, pH=9.0 in a 7 mL glass vial. The halogenated substrate (5.0 μl) and a small stir bar were added, and the vial capped. Reaction was initiated by transfer to a 30° C. water bath equipped with a magnetic stirrer. Periodically 1.0 mL samples were removed and assayed for free halide. Rates were determined after correcting for non-enzymatic hydrolysis with an appropriate blank. A standard curve was prepared using sodium chloride.
Frozen pellets from 2 liters of culture were thawed into 150 mL of 10 mM Tris sulfate buffer, pH=7.5 containing 1 mM disodium EDTA. This buffer was used throughout the entire purification. The suspension was sonicated for approximately 1 hour with ice cooling using a Microson Ultrasonic Cell Disrupter and centrifuged at 10,000 rpm for 15 minutes to remove cell debris. Supernatant was removed and the sonication/centrifugation repeated with fresh buffer to increase enzyme yield. Overall sonication efficiency was monitored by absorbence at 280 nm. Cell free extracts were combined and brought slowly to 30 percent saturation with solid ammonium sulfate. The suspension was centrifuged at 10,000 rpm for 30 minutes and the pellet discarded. The supernatant was brought to 70 percent saturation with solid ammonium sulfate and centrifugation repeated. Supernatant was discarded and the pellet taken up in a small volume of buffer and dialyzed overnight against 1 liter of the same. The preparation was applied to a 1.5×15cm column of DEAE-Sephadex equilibrated with the same buffer elution carried out with a 1 liter gradient from 0 to 400 mM ammonium sulfate. Fractions of about 7-8 mLs were collected. The active fractions were pooled and brought to 90 percent saturation with ammonium sulfate. The pellet was taken up in a minimal amount of buffer, ultrafiltered to 2.5 mL using 10,000 MWCO Novacell Ultrafiltration cell, and applied to a 1.5×90 cm Sephadex G-100 column. Elution was by gravity at 90 cm and fractions of 7-8 mLs were collected. Active fractions were poled, brought to 30 percent saturation with ammonium sulfate, and applied to a 10 ml column of Butyl-agarose equilibrated in the same. Elution was performed with a 500 mL gradient from 30 percent-0 percent ammonium sulfate. Active fractions were pooled, dialyzed and used for substrate selectivity studies.
To evaluate the substrate selectivity of haloalkane dehalogenase from isolated Rhodococcus species, an enzyme preparation from the strain designated TDTM-003 was purified by the procedure described under General Experimental. This preparation provided a dehalogenase which was approximately 50 percent pure as estimated by SDS-PAGE and was free of interfering halohydrin dehalogenase activity.
The activity of this partially purified TDTM-003 dehalogenase preparation was evaluated against various chlorinated and brominated substrates. Each enzymatic rate was corrected for non-enzymatic hydroloysis.

[2] = system: dehalogenase in cell free extracts of Rhodococcus Rhodochrous, TDTM-003; assay: Primary screen of dehalogenase activity in cell free extracts of TDTM-003; format: biochemical
Description: Following overnight growth, 50 μl of 1-chlorobutane was added to induce the dehalogenase. After 24 hours induction, cells were harvested by centrifugation, resuspended in cold 10mM Tris sulfate/1 mM disodium EDTA, pH=7.5, and disrupted by sonication. Cell debris was removed by centrifugation at 10,000 rpm for 30 minutes, cell free extracts dialyzed overnight against the same buffer, and assayed without dilution for dehalogenase activity.
Free chloride or bromide was assayed qualitatively using a chloride electrode (Orion), or quantitatively using the colorimetric method (430 nm) described by J. G. Bergmann, et al., Anal. Chem., 29:241-243 (1957).
as §1
Preliminary studies were performed on cell free extracts of TDTM-003 to evaluate the enzyme substrate selectivity, and the results of this study are shown in Table 2.

TDTM-003-60-2-11 [3] = assay: Utilization of carbon containing compounds for growth in liquid culture, TDTM-003-60-2-11; format: cell-based, Rhodococcus species ATCC 55388;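 note: minus means no visible growth and plus means good growth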
Description: A representative double mutant designated TDTM-003-60-2-11, made by the above example was deposited at the American Type Culture Collection on Jan. 28, 1993 and given the ATCC designation 55388.

TDTM-003 = assay: Utilization of carbon containing compounds for growth in liquid culture, TDTM-003; format: cell-based, Rhodococcus species; details: liquid culture
TDTM-003-60-2-11 [4] = assay: Dehalogenation by double mutant strain TDTM-003-60-2-11 in shake flask with bulb feeder; format: cell-based, Rhodococcus sp.; details: after 120 hours
Description: For gas chromatography (GC) analysis of halogenated metabolites, cultures were centrifuged briefly to remove cells, saturated with sodium sulfate, and an equivalent volume of methylene chloride added. The suspension was vortexed vigorously, centrifuged to break the emulsion and the methylene chloride phase removed.
Analysis of all halocarbon substrates and products from culture broths was done by GC using a Hewlett Packard 5710 equipped with a 7671A Autoinjector with the following protocol:
Dehalogenation of 1,2-dichloropropane by the double mutant strain of Rhodococcus sp., designated TDTM-003-60-2-11 was assayed in the following manner: 5 mL of an overnight culture (16 hours) were used as inoculum for 50 mL MM1X4P containing 5 g/L disodium succinate in a 250 mL flask. At 4 and 8 hours growth, 10 μL of 1-chlorobutane was added to induce the dehalogenase enzyme. Following 24 hours of growth, cells were harvested by centrifugation, resuspended into 50 mL of fresh MM1X4P, and transferred to a sterile 250 mL shake flask equipped with a bulb feeder. To the bulb feeder was added 1,2-dichloropropane and incubation continued at 28° C. and 150 rpm. […] The production of halohydrin products was monitored by gas chromatography. 1 -Chloro-2-propanol and 2-chloro-1-propanol accumulate linearly in the culture broth to 74 parts-per-million (ppm) (w/v) and 20 ppm (w/v) respectively after 120 hours. The overall rate of halohydrin production is 0.60 mg/g dry cells/hr.
The procedure described in Example 6 was followed except 1,2-dichlorobutanereplaced 1-chlorobutane in the bulb feeder.
The procedure described in Example 6 was followed except 1,2,3-trichloropropane replaced 1-chlorobutane in the bulb feeder.

partially purified TDTM-003 dehalogenase, sequence (P59336 whole entry): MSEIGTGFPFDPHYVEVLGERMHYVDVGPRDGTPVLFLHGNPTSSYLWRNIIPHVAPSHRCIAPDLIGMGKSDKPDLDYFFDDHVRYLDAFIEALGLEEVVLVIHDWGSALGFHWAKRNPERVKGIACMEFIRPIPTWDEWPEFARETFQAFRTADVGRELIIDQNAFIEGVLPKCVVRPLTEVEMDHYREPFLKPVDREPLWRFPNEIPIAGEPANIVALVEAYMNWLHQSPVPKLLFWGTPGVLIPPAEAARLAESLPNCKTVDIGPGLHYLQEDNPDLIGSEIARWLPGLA

Molecule	Relative Rate of Halogen Release, 1-Chlorobutane = 100 [1]	Relative Rate of Chloride Release, 1-chlorobutane = 100 [2]	other results
CCC(Br)CBr (stereo not drawn) [1,2-dibromobutane]	756.000		
BrCCBr [1,2-dibromoethane]	1318.000		
CC(Br)CBr (stereo not drawn) [1,2-dibromopropane]	900.000		
CC(C)(Cl)CCl [1,2-dichloro-2-methylpropane]	0.000	300	
ClCCCl [1,2-dichloroethane]	4.400	2.8	
CC(Br)CCBr (stereo not drawn) [1,3-dibromobutane]	155.000		
BrCCCBr [1,3-dibromopropane]	771.000		
OC(CCl)CCl [1,3-dichloro-2-propane]			Utilization of carbon source for growth, TDTM-003-60-2-11 (TDTM-003-60-2-11 [3]): -; Utilization of carbon source for growth, TDTM-003 (TDTM-003): +/-
CC(Cl)CCCl (stereo not drawn) [1,3-dichlorobutane]	81.000	63	
ClCCCCl [1,3-dichloropropane]	253.000	203	
BrCCCCBr [1,4-dibromobutane]	294.000		
ClCCCCCl [1,4-dichlorobutane]	261.000	178	
ClCCCCCCl [1,5-dichloropentane]	173.000	112	
BrCCCCCCBr [1,6-dibromohexane]	244.000		
ClCCCCCCCl [1,6-dichlorohexane]	252.000	169	
BrCCCCCCCCBr [1,8-dibromooctane]	173.000		
ClCCCCCCCCCCCl [1,10-dichlorodecane]	52.000	124	
CCC(O)CCl (stereo not drawn) [1-Chloro-2-butanol]			halohydrin accumulated in culture broth (TDTM-003-60-2-11 [4]; substrate 1,2-dichlorobutane): 6.5 ppm (w/v)
ClCCBr [1-bromo-2-chloroethane]	751.000		
CCCCBr [1-bromobutane]	265.000	362	
CCCCCCCCCCBr [1-bromodecane]	98.000		
CCCCCCBr [1-bromohexane]	162.000		
CCCCCCCCBr [1-bromooctane]	414.000		
CCCCCBr [1-bromopentane]	203.000		
CCCBr [1-bromopropane]	459.000		
CC(C)CCl [1-chloro-2-methylpropane]		117	
CC(O)CCl (stereo not drawn) [1-chloro-2-propanol]			halohydrin accumulated in culture broth (TDTM-003-60-2-11 [4]; substrate 1,2-dichloropropane): 74 ppm (w/v)
CCCCCl [1-chlorobutane]	100.000	100	

Molecule	Relative Rate of Halogen Release, 1-Chlorobutane = 100 [1]	Relative Rate of Chloride Release, 1-chlorobutane = 100 [2]	other results
CCCCCCCCCCCl [1-chlorodecane]	28.000		
CCCCCCCCl [1-chloroheptane]	130.000		
CCCCCCCl [1-chlorohexane]	119.000	136	
CCCCCCCCCl [1-chlorooctane]	58.000	159	
CCCCCCl [1-chloropentane]	81.000	109	
CCCCl [1-chloropropane]	33.000	57	
CC(C)(Cl)Cl [2,2-dichloropropane]	23.000		
CC(Br)C(C)Br (stereo not drawn) [2,3-dibromobutane]	846.000		
OCC(Cl)CCl (stereo not drawn) [2,3-dichloro-1-propane]			Utilization of carbon source for growth, TDTM-003-60-2-11 (TDTM-003-60-2-11 [3]): -; Utilization of carbon source for growth, TDTM-003 (TDTM-003): + /-
OCC(Cl)CCl (stereo not drawn) [2,3-dichloro-1-propanol]			halohydrin accumulated in culture broth (TDTM-003-60-2-11 [4]; substrate 1,2,3-trichloropropane): 211 ppm (w/v)
CC(Cl)C(C)Cl (stereo not drawn) [2,3-dichlorobutane]	19.000	73	
CC(C)Br [2-Bromopropane]	55.000		
CCC(C)Br (stereo not drawn) [2-bromobutane]	123.000		
CCC(Cl)CO (stereo not drawn) [2-chloro-1-butanol]			halohydrin accumulated in culture broth (TDTM-003-60-2-11 [4]; substrate 1,2-dichlorobutane): 265 ppm (w/v)
CC(Cl)CO (stereo not drawn) [2-chloro-1-propanol]			halohydrin accumulated in culture broth (TDTM-003-60-2-11 [4]; substrate 1,2-dichloropropane): 20 ppm (w/v)
CC(C)(C)Cl [2-chloro-2-methylpropane]		2917	
CCC(C)Cl (stereo not drawn) [2-chlorobutane]	20.000	65	
CCC(N)C(=O)O (stereo not drawn) [Aminobutyrate]			Utilization of carbon source for growth, TDTM-003-60-2-11 (TDTM-003-60-2-11 [3]): +; Utilization of carbon source for growth, TDTM-003 (TDTM-003): +
O=C(O)[C@H](O)[C@@H](O)[C@H](O)[C@H](O)CO [Gluconate]			Utilization of carbon source for growth, TDTM-003-60-2-11 (TDTM-003-60-2-11 [3]): ++; Utilization of carbon source for growth, TDTM-003 (TDTM-003): ++
O=C[C@H](O)[C@@H](O)[C@H](O)[C@H](O)CO [Glucose]			Utilization of carbon source for growth, TDTM-003-60-2-11 (TDTM-003-60-2-11 [3]): + +
ClC1CCCCC1 [chlorocyclohexane]	7.500		
O=C(O)c1cccc(O)c1 [m-OH Benz]			Utilization of carbon source for growth, TDTM-003-60-2-11 (TDTM-003-60-2-11 [3]): -; Utilization of carbon source for growth, TDTM-003 (TDTM-003): -
O=C(O)c1ccc(O)cc1 [p-OH-Benz]			Utilization of carbon source for growth, TDTM-003-60-2-11 (TDTM-003-60-2-11 [3]): -; Utilization of carbon source for growth, TDTM-003 (TDTM-003): -
Dextrin			Utilization of carbon source for growth, TDTM-003-60-2-11 (TDTM-003-60-2-11 [3]): -; Utilization of carbon source for growth, TDTM-003 (TDTM-003): -
Glycogen			Utilization of carbon source for growth, TDTM-003-60-2-11 (TDTM-003-60-2-11 [3]): +; Utilization of carbon source for growth, TDTM-003 (TDTM-003): +
Inulin			Utilization of carbon source for growth, TDTM-003-60-2-11 (TDTM-003-60-2-11 [3]): -; Utilization of carbon source for growth, TDTM-003 (TDTM-003): -
Phenylacetate			Utilization of carbon source for growth, TDTM-003-60-2-11 (TDTM-003-60-2-11 [3]): -; Utilization of carbon source for growth, TDTM-003 (TDTM-003): +

From US5372944A, “Method for conversion of halogenated hydrocarbons to halohydrins” (The Dow Chemical Company, priority 1993, dated 1994)
